In patent EP4741383A1, “COMPOUND AND USE THEREOF AS ANTI-CANCER DRUG” (Tyligand Bioscience (Shanghai) Limited, priority 2023, dated 2025):

These compounds were tested on SK-BR-3 (assay: CellTiter-Glo cell proliferation inhibition, SK-BR-3). Details: Homo sapiens; SK-BR-3 (breast cancer cell line), 72 hours; read-out: Example IC50 (µM) SK-BR-3.
Format: cell-based
Excerpt: This experiment used the CellTiter-Glo® Luminescent Cell Viability Assay kit from Promega to evaluate the inhibitory activity of the disclosed compounds on the proliferation of the following cell lines: 4T1 (mouse breast cancer cell line), A20 (mouse B-cell lymphoma cell line), A2780 (human ovarian cancer cell line), AsPC-1 (pancreatic cancer cell line), B16F10 (mouse melanoma cell line), BT549 (human breast cancer cell line), CT26 (mouse colon cancer cell line), EMT6 (mouse breast cancer cell line), HCT116 (colorectal cancer cell line), Jurket (acute leukemia cell line), KP-4 (pancreatic cancer cell line), LL/2 (mouse lung cancer cell line), MCF7 (breast cancer cell line), […] NCI-H358 (lung cancer cell line), NCI-H727 (gastric cancer cell line), NCI-1944 (lung cancer cell line), Pan 04.03 (pancreatic cancer cell line), SK-BR-3 (breast cancer cell line), THP-1 (leukemia cell line), TOV21G (ovarian cancer cell line), U87MG (glioblastoma cell line), and UM-UC-a (bladder cancer cell line).
All cell lines were purchased from Nanjing Kebai Biotechnology Co., Ltd. The following materials were also used in the experiment: RPMI-1640 media (HyClone, catalog number #SH30022.01), McCoy's 5A media (Thermo Fisher, catalog number #16600-082), MCDB 105 media (Sigma, catalog number #117-500), Medium 199 (Thermo Fisher, catalog number #11150-059), MEM media (Thermo Fisher, catalog number #11095-080), DMEM media (HyClone, catalog number #SH30027.01), fetal bovine serum (FBS) (ExCell, catalog number # M4530), Sodium Pyruvate (100Mm) (Thermo Fisher, catalog number #11360-070), and MEM NEAA (100X) (Thermo Fisher). […]
Cells were cultured according to the instructions provided by the cell supplier (Nanjing Kebai Biotechnology Co., Ltd.). […] Suspension or adherent cells were collected, and cell viability was determined using the trypan blue exclusion method, ensuring that cell viability was above 90%. […]

IC50 | SMILES
0.14 µM | O=C(Nc1ccc(-c2csc(CO)c2)cc1)C(=O)Nc1ccc(-c2cc3cc(F)c(-c4nnn[nH]4)cc3n2C2CCC2)cc1 [Example 1]
0.057 µM | CC1(n2c(-c3ccc(NC(=O)C(=O)Nc4ccc(N5CCC6(CCOC6)CC5)cc4)cc3)cc3cc(F)c(-c4nnn[nH]4)cc32)CCC1 [Example 68]
0.044 µM | O=C(Nc1ccc(-c2cc3cc(F)c(-c4nnn[nH]4)cc3n2C2CCC2)cc1)C(=O)Nc1ccc(N2CCC3(CCC(O)C3)CC2)cc1 (stereo not drawn) [Example 100]
